Test results published in patent US9695155B2, “Herbicidal substituted pyrimidinyloxy benzene compounds” (E. I. DU PONT DE NEMOURS AND COMPANY, priority 2013, dated 2017).

Legend:
[1] = test system: barnyardgrass; experiment: Test A preemergence; assay type: in vivo, Echinochloa crus-galli; settings: Echinochloa crus-galli, pre-emergence, 240 h
How it was run: (§1)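 Visual 0–100 rating (100 = complete control) taken about 10 d post-treatment relative to untreated checks. Preemergence: directed soil spray on sown loam/sand pots. Postemergence: seedlings 2–10 cm, 1–2 leaf. Non-phytotoxic solvent formulation with surfactant.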

[2] = test system: large (Lg) crabgrass; experiment: Test A preemergence; assay type: in vivo, Digitaria sanguinalis; settings: Digitaria sanguinalis, pre-emergence, 240 h
How it was run: as §1

[3] = test system: wheat; experiment: Test A preemergence; assay type: in vivo, Triticum aestivum
How it was run: as §1

[4] = test system: giant foxtail; experiment: Test A postemergence; assay type: in vivo, Setaria faberii; settings: Setaria faberi, post-emergence, 240 h
How it was run: as §1

[5] = test system: morningglory; experiment: Test A postemergence; assay type: in vivo, Ipomoea spp.; settings: Ipomoea, post-emergence, 240 h
How it was run: as §1

[6] = test system: corn; experiment: Test A postemergence; assay type: in vivo, Zea mays; settings: Zea mays, post-emergence, 240 h
How it was run: as §1

[7] = test system: Heteranthera limosa; experiment: Test B flooded paddy test; assay type: in vivo; settings: Heteranthera limosa, Flood, 250 g ai/ha; 0 to 100 scale where 0 is no effect and 100 is complete control; read-out: Plant response rating, Ducksalad
How it was run: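 Visual ratings on a 0 to 100 scale, where 100 means complete control, compared treated plants with controls after 13 to 15 days in a greenhouse. Treatment went into paddy water 3 cm deep over the soil, applied to plants at the 2-leaf stage.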

[8] = test system: Italian ryegrass; experiment: Test C preemergence; assay type: in vivo, Lolium multiflorum; settings: Lolium multiflorum, pre-emergence
How it was run: (§2)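 Greenhouse herbicide screen. Pre: seeded loam/sand, sprayed at planting. Post: 1–4 leaf plants (2–18 cm) in peat-based mix. Formulation: solvent mixture + surfactant, non-phytotoxic. Readout: visual % control vs untreated, 13–15 d; dash = not tested.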

[9] = test system: ragweed; experiment: Test C preemergence; assay type: in vivo, Ambrosia elatior; settings: Ambrosia artemisiifolia, pre-emergence
How it was run: as §2

[10] = test system: oilseed rape; experiment: Test C preemergence; assay type: in vivo, Brassica napus; settings: Brassica napus, pre-emergence
How it was run: as §2

[11] = test system: corn; experiment: Test C postemergence; assay type: in vivo, Zea mays; settings: Zea mays, post-emergence
How it was run: as §2

[12] = test system: morningglory; experiment: Test C postemergence; assay type: in vivo, Ipomoea coccinea; settings: Ipomoea, post-emergence
How it was run: as §2

[13] = test system: pigweed; experiment: Test C postemergence; assay type: in vivo, Amaranthus retroflexus; settings: Amaranthus retroflexus, post-emergence
How it was run: as §2

[14] = test system: kochia; experiment: Test C postemergence; assay type: in vivo, Kochia scoparia; settings: Bassia scoparia, post-emergence
How it was run: as §2

[15] = test system: wild oat; experiment: Test C postemergence; assay type: in vivo, Avena fatua; settings: Avena fatua, post-emergence
How it was run: as §2

[16] = 125 g ai/ha, 0 to 100 scale where 0 is no effect and 100 is complete control

With N#Cc1cccc(Oc2ncc(Br)cn2)c1-n1cc(C(F)(F)F)cn1 [Compound 59, 3-[(5-bromo-2-pyrimidinyl)oxy]-2-[4-(trifluoromethyl)-1H-pyrazol-1-yl]benzonitrile] the pest or weed control at 125 g/ha ([1]; 125 g ai/ha, 0 to 100 scale where 0 is no effect and 100 is complete control, read-out: Plant response rating, Barnyardgrass) was 80%, the pest or weed control at 500 g/ha ([1]; 500 g ai/ha, 0 to 100 scale, 0 no effect, 100 complete control, approx. 10 days, read-out: Barnyardgrass plant response rating) was 100% and the pest or weed control at 125 g/ha ([2]; 125 g ai/ha, 0 to 100 scale where 0 is no effect and 100 is complete control, read-out: Plant response rating, Crabgrass, Large) was 100%. For the same molecule, the pest or weed control at 500 g/ha ([2]; 500 g ai/ha, 0 to 100 scale, 0 no effect, 100 complete control, approx. 10 days, read-out: Crabgrass, Large plant response rating) was 100%, the “Plant response rating, Wheat” value [3, 16] was 20 and the plant injury at 500 g/ha ([3]; Triticum aestivum, pre-emergence, 240 h, 500 g ai/ha, 0 to 100 scale, 0 no effect, 100 complete control, approx. 10 days, read-out: Wheat plant response rating) was 40%. The pest or weed control at 125 g/ha ([4]; 125 g ai/ha, 0 to 100 scale where 0 is no effect and 100 is complete control, read-out: Plant response rating, Foxtail, Giant) was 100%, the pest or weed control at 500 g/ha ([4]; 500 g ai/ha, 0 to 100 scale, 0 no effect, 100 complete control, read-out: Plant response rating Foxtail, Giant) was 100% and the pest or weed control at 125 g/ha ([5]; 125 g ai/ha, 0 to 100 scale where 0 is no effect and 100 is complete control, read-out: Plant response rating, Morningglory) was 90%. For the same molecule, the pest or weed control at 500 g/ha ([5]; 500 g ai/ha, 0 to 100 scale, 0 no effect, 100 complete control, read-out: Plant response rating Morningglory) was 100%, the Corn plant response rating (crop injury, 0 = no effect, 100 = complete kill) at 125 g/ha [6, 16] was 60% and the plant injury at 500 g/ha ([6]; 500 g ai/ha, 0 to 100 scale, 0 no effect, 100 complete control, read-out: Plant response rating Corn) was 100%. It also gave a pest or weed control at 250 g/ha [7] of 80%, a pest or weed control at 62 g/ha ([8]; 62 g ai/ha, preemergence, scale 0 (no effect) to 100 (complete control), read-out: Ryegrass, Italian plant response rating) of 85% and a pest or weed control at 125 g/ha ([8]; 125 g ai/ha, preemergence, scale 0 (no effect) to 100 (complete control), read-out: Ryegrass, Italian plant response rating) of 90%. It also gave a pest or weed control at 250 g/ha ([8]; 250 g ai/ha, preemergence, scale 0 (no effect) to 100 (complete control), read-out: Ryegrass, Italian plant response rating) of 90%, a pest or weed control at 31 g/ha ([8]; Preemergence, 31 g ai/ha, scale 0 to 100, 0 no effect, 100 complete control, read-out: Plant response rating, Ryegrass, Italian) of 50% and a pest or weed control at 62 g/ha ([9]; 62 g ai/ha, preemergence, scale 0 (no effect) to 100 (complete control), read-out: Ragweed plant response rating) of 95%. For the same molecule, the pest or weed control at 125 g/ha ([9]; 125 g ai/ha, preemergence, scale 0 (no effect) to 100 (complete control), read-out: Ragweed plant response rating) was 100%, the pest or weed control at 250 g/ha ([9]; 250 g ai/ha, preemergence, scale 0 (no effect) to 100 (complete control), read-out: Ragweed plant response rating) was 100% and the pest or weed control at 31 g/ha ([9]; Preemergence, 31 g ai/ha, scale 0 to 100, 0 no effect, 100 complete control, read-out: Plant response rating, Ragweed) was 90%. For the same molecule, the plant injury at 62 g/ha ([10]; 62 g ai/ha, preemergence, scale 0 (no effect) to 100 (complete control), read-out: Oilseed Rape plant response rating) was 100%, the plant injury at 125 g/ha ([10]; 125 g ai/ha, preemergence, scale 0 (no effect) to 100 (complete control), read-out: Oilseed Rape plant response rating) was 100% and the plant injury at 250 g/ha ([10]; 250 g ai/ha, preemergence, scale 0 (no effect) to 100 (complete control), read-out: Oilseed Rape plant response rating) was 100%. The plant injury at 31 g/ha ([10]; Preemergence, 31 g ai/ha, scale 0 to 100, 0 no effect, 100 complete control, read-out: Plant response rating, Oilseed Rape) was 90%, the plant injury at 125 g/ha ([11]; 125 g ai/ha, postemergence, read-out: Plant response rating (0 to 100), Corn) was 15% and the plant injury at 250 g/ha ([11]; 250 g ai/ha, postemergence, read-out: Plant response rating (0 to 100), Corn) was 20%. The Corn plant response rating (crop injury, 0 = no effect, 100 = complete kill) at 31 g/ha ([11]; Postemergence, 31 g ai/ha, scale 0 to 100 (0 no effect, 100 complete control), 13 to 15 days) was 10%, the Corn plant response rating (crop injury, 0 = no effect, 100 = complete kill) at 62 g/ha ([11]; Postemergence, 62 g ai/ha, scale 0 to 100 (0 no effect, 100 complete control)) was 15% and the pest or weed control at 125 g/ha ([12]; 125 g ai/ha, postemergence, read-out: Plant response rating (0 to 100), Morningglory) was 95%. It also gave a pest or weed control at 250 g/ha ([12]; 250 g ai/ha, postemergence, read-out: Plant response rating (0 to 100), Morningglory) of 95%, a pest or weed control at 31 g/ha ([12]; Postemergence, 31 g ai/ha, scale 0 to 100 (0 no effect, 100 complete control), 13 to 15 days, read-out: Plant response rating, Morningglory) of 80% and a pest or weed control at 62 g/ha ([12]; Postemergence, 62 g ai/ha, scale 0 to 100 (0 no effect, 100 complete control), read-out: Plant response rating, Morningglory) of 85%. It also gave a pest or weed control at 125 g/ha ([13]; 125 g ai/ha, postemergence, read-out: Plant response rating (0 to 100), Pigweed) of 95%, a pest or weed control at 250 g/ha ([13]; 250 g ai/ha, postemergence, read-out: Plant response rating (0 to 100), Pigweed) of 98% and a pest or weed control at 31 g/ha ([13]; Postemergence, 31 g ai/ha, scale 0 to 100 (0 no effect, 100 complete control), 13 to 15 days, read-out: Plant response rating, Pigweed) of 80%. For the same molecule, the pest or weed control at 62 g/ha ([13]; Postemergence, 62 g ai/ha, scale 0 to 100 (0 no effect, 100 complete control), read-out: Plant response rating, Pigweed) was 90%, the pest or weed control at 125 g/ha ([14]; 125 g ai/ha, postemergence, read-out: Plant response rating (0 to 100), Kochia) was 100% and the pest or weed control at 250 g/ha ([14]; 250 g ai/ha, postemergence, read-out: Plant response rating (0 to 100), Kochia) was 100%. For the same molecule, the pest or weed control at 31 g/ha ([14]; Postemergence, 31 g ai/ha, scale 0 to 100 (0 no effect, 100 complete control), 13 to 15 days, read-out: Plant response rating, Kochia) was 95%, the pest or weed control at 62 g/ha ([14]; Postemergence, 62 g ai/ha, scale 0 to 100 (0 no effect, 100 complete control), read-out: Plant response rating, Kochia) was 100% and the pest or weed control at 125 g/ha ([15]; 125 g ai/ha, postemergence, read-out: Plant response rating (0 to 100), Oat, Wild) was 40%. The pest or weed control at 250 g/ha ([15]; 250 g ai/ha, postemergence, read-out: Plant response rating (0 to 100), Oat, Wild) was 40%, the pest or weed control at 31 g/ha ([15]; Postemergence, 31 g ai/ha, scale 0 to 100 (0 no effect, 100 complete control), 13 to 15 days, read-out: Plant response rating, Oat, Wild) was 25% and the pest or weed control at 62 g/ha ([15]; Postemergence, 62 g ai/ha, scale 0 to 100 (0 no effect, 100 complete control), read-out: Plant response rating, Oat, Wild) was 25%.
